Test results from patent US4676822A, “Fluid fertilizers containing thiophosphoryl triamide” (Tennessee Valley Authority, priority 1986, dated 1987).
Where “and” joins values, the source holds several entries; their conditions need not be identical. Equal values may be shown once. Read-outs that look alike come from different tables or passages of the source.

Columns and labels:
urease [1] = details: prior art; cited from earlier work
[2] = solid mixtures with urea, 25° C.; cited from earlier work
[3] = 25° C., cited from earlier work; for first-order reaction half-life: UAN (31-0-0)
urease [4] = test: Urease inhibition tests with TPTA and PPDA in fluid fertilizers, banded soil system (urease-active Hastings silt loam); assay type: biochemical; details: for average % urea unhydrolyzed, 3 days / % urea unhydrolyzed, 3 days: 3 days incubation at 25° C.; for average % urea unhydrolyzed, 3 days / average % urea unhydrolyzed, 6 days: average of A and B samples; for % urea unhydrolyzed, 3 days / % urea unhydrolyzed, 6 days: single sample; for average % urea unhydrolyzed, 6 days / % urea unhydrolyzed, 6 days: 6 days incubation at 25° C.
Protocol: Samples of UAN (31-0-0), 1 g, and (36-0-0), 0.66 g containing approximately 0.38 g urea and 0.041 g of TPTA were prepared by dissolving solid TPTA in 31-0-0 and 36-0-0 of the compositions shown in Table I, supra. Identical samples containing PPDA and without either inhibitor were prepared to serve as references for purposes of data comparison.
Urease-active soil (Hastings silt loam) was moistened to a moisture content of 20 percent and preincubated at room temperature for two days. Plexiglass containers (6×6×6 cm) were one-half filled with soil and packed to a bulk density of 1.0 g/cm^3. The 31-0-0 and 36-0-0 samples containing TPTA and PPDA as well as samples containing no inhibitor were distributed evenly in a narrow band 6 cm along the soil surface. The containers were filled with soil and again packed to a bulk density of 1.0 g/cm^3. The containers were incubated at 25° C. for the desired reaction period. After incubation the soil from each container was thoroughly mixed, and a 10-g sample was extracted with 100 mL of 2M KCl containing 5 ppm phenylmercuric acetate to prevent urea hydrolysis during handling [L. A. Douglass and J. M. Bremner, Soil Sci. Soc. Am. Proc. 34, 859-862 (1970)]. The urea in the extracts was determined colorimetrically as a measure of unhydrolyzed urea. The results of three-day and six-day incubation tests are illustrated in Table II infra; and as noted supra, plotted in FIG. 1.

[5] = compared with PPDA; cited from earlier work
[6] = 25° C., water partial pressure 12.73 mm of Hg; cited from earlier work

## NP(N)(=O)O [DAPA, diamidophosphoric acid]
Urease [1]
  urease inhibition (in words): are urease inhibitors

## NP(=O)(O)O [MAPA, monoamido phosphoric acid]
Urease [1]
  urease inhibition (in words): are urease inhibitors

## NP(N)(=O)Oc1ccccc1 [PPDA, phenyl phosphorodiamidate, reference compound]
[2]
  half-life of PPDA in mixtures with urea: 0.9 years
[3]; pH 6.46
  first-order reaction half-life: 6.1 days
[3]; pH 8.14
  first-order reaction half-life: 1.2 days
[3]; UAN (36-0-0) saturated with PPDA
  decomposition rate constant: 10.2 percent decomposition per day
[3]; UAS (29-0-0-5S) saturated with PPDA
  decomposition rate constant: 20.5 percent decomposition per day
Urease [4]; UAN (31-0-0)
  average % urea unhydrolyzed, 3 days: 83.36%
  % urea unhydrolyzed, 3 days: 83.64% and 83.09%
  average % urea unhydrolyzed, 6 days: 12.61%
  % urea unhydrolyzed, 6 days: 14.03% and 11.20%
Urease [4]; UAN (36-0-0)
  average % urea unhydrolyzed, 3 days: 85.73% and 84%
  % urea unhydrolyzed, 3 days: 86.22% and 81.24%
  average % urea unhydrolyzed, 6 days: 11.32% and 11%
  % urea unhydrolyzed, 6 days: 12.10% and 10.53%
Urease [1]
  urease inhibition (in words): extremely potent inhibitor of urease activity

## NP(N)(N)=O [PTA, phosphoryl triamide]
[5]
  stability in urea melt: much less stable in urea melt than PPDA
[6]
  reaction half-life in solid mixtures with urea: 4.3 h
